Assay results taken from US20230099803A1, “OXAZOLIDINONE FOR TREATMENT OF INFECTIONS WITH MYCOBACTERIUM TUBERCULOSIS” (priority 2017, published 2023).
Converted amounts (≈) assume the structure as drawn. Like-named read-outs stand apart in the source and are kept apart here.

What was measured:
Klebsiella pneumoniae = experiment: MIC90 broth microdilution; type: cell-based; details: for MIC90: Klebsiella pneumoniae, ATCC35657, ATCC 35657, 35° C., 18 hours
[1] = test system: Acinetobacter baumannii 6M-1b; experiment: MIC90 broth microdilution; type: cell-based; details: 6M1B, environmental strain 6M-1b, 35° C., 18 hours
[2] = test system: Acinetobacter baumannii ACBA; experiment: MIC90 broth microdilution; type: cell-based; details: patient isolate ACBA, 35° C., 18 hours
Pseudomonas aeruginosa = experiment: MIC90 broth microdilution; type: cell-based; details: for MIC90: Pseudomonas aeruginosa, PA14, 35° C., 18 hours
Enterococcus faecalis [3] = experiment: MIC90 broth microdilution; type: cell-based; details: ATCC19433, ATCC 19433, 35° C., 18 hours
[4] = test system: Staphylococcus aureus methicillin-sensitive; experiment: MIC90 broth microdilution; type: cell-based; details: ATCC29213, ATCC 29213, 35° C., 18 hours
[5] = test system: Mycobacterium tuberculosis; experiment: MIC90 broth macrodilution; details: H37Rv; 7H9 broth, fourteen days at 37° C.
Mycobacterium abscessus = experiment: MIC90 broth microdilution; type: cell-based; details: for MIC90: Mycobacteroides abscessus, ATCC19977, 72 h, ATCC 19977, 30° C., 3 days
Mycobacterium avium = experiment: MIC90 broth microdilution; type: cell-based; details: for MIC90: Mycobacterium avium, 168 h, strain 104, seven days at 37° C.
[6] = test system: Acinetobacter baumannii ATCC 19606; experiment: MIC90 broth microdilution; type: cell-based; details: ATCC19606, strain ATCC 19606, 35° C., 18 hours
Enterobacter cloacae = experiment: MIC90 broth microdilution; type: cell-based; details: for MIC90: Enterobacter cloacae, ATCC13047, ATCC 13047, 35° C., 18 hours
[7] = test system: Mycobacterium tuberculosis; details: values marked with literature reference (^4,11 or ^15), cited from earlier work
Staphylococcus aureus [8] = test system: Staphylococcus aureus
Enterococcus faecalis [9] = test system: Enterococcus faecalis
[10] = test system: Mycobacterium tuberculosis; experiment: Checkerboard titration assay; type: cell-based; details: T145 combined with isoniazid or rifampicin
Description: The inventors also evaluated if any drug-drug interaction existed between T145 and isoniazid or rifampicin, two drugs that comprise the backbone of tuberculosis treatment today, against Mycobacterium tuberculosis using the checkerboard assay as described above. Any antagonism or synergy between T145 and isoniazid or rifampicin is not observed, and therefore that activity of T145 against Mycobacterium tuberculosis is indifferent to that of isoniazid or rifampicin.
This assay is a modification of the broth dilution assay and was carried out as described. In summary, each well containing 10^5 CFU received two drugs each in two fold dilutions below their respective MIC90. The suspensions are incubated at 37° C. and growth was evaluated as described above. Fractional Inhibitory Concentration (FIC) of a drug in a combination that inhibits bacterial growth is the concentration of the drug in the well divided by MIC90 of the drug if used alone. The sum of FIC of each drug in the combination is the FIC index. In each well where bacterial growth was absent, FIC index was calculated and an average FIC index was determined. Drug-drug antagonism was inferred if average FIC index is >2, indifference if 0.5-2.0 and synergy if ≤ 0.5.

[11] = test system: Mycobacterium tuberculosis; experiment: Minimum bactericidal concentration (MBC99.9); type: cell-based
Enterococcus faecalis [12] = experiment: Minimum bactericidal concentration (MBC99.9); type: cell-based; details: up to 8 times MIC90
[13] = test system: methicillin-sensitive Staphylococcus aureus; experiment: Checkerboard titration assay; type: cell-based; details: T145 combined with doripenem, biapenem, faropenem and tebipenem; 1x to 1/16x MIC90
Enterococcus faecalis [14] = experiment: Checkerboard titration assay; type: cell-based; details: T145 combined with doripenem, biapenem, faropenem and tebipenem; 1x to 1/16x MIC90
[15] = test system: methicillin-resistant Staphylococcus aureus; experiment: Checkerboard titration assay; type: cell-based; details: T145 combined with doripenem, biapenem, faropenem and tebipenem; 1x to 1/16x MIC90
[16] = test system: methicillin-resistant Staphylococcus aureus ATCC 43300; experiment: MIC90 determination; type: cell-based; details: ATCC43300, methicillin-resistant strain ATCC 43300
Staphylococcus aureus [17] = experiment: Minimum bactericidal concentration (MBC99.9); type: cell-based; details: up to 8 times MIC90
Staphylococcus aureus [18] = details: general statement on linezolid; cited from earlier work
[19] = Acinetobacter baumannii, read-out: MIC90

Row | SMILES | MIC90 (Klebsiella pneumoniae) [µg/mL] | MIC90 [1] [µg/mL] | MIC90 [2, 19] [µg/mL] | MIC90 [2] [µg/mL] | MIC90 (Pseudomonas aeruginosa) [µg/mL] | MIC90 (Enterococcus faecalis [3]) [µg/mL] | MIC90 [4] [µg/mL] | MIC90 [6] [µg/mL] | MIC90 (Enterobacter cloacae) [µg/mL] | MIC90 [7] | further results
1 | C[C@@H](O)[C@H]1C(=O)N2C(C(=O)O)=C(S[C@@H]3CN[C@H](C(=O)N(C)C)C3)[C@H](C)[C@H]12 [Meropenem] | < 0.06 | 1 to 2 (≈ 2.61 to 5.22 µM) | > 64 | >64 | 0.25 to 0.5 (≈ 0.652 to 1.3 µM) | 4 to 8 (≈ 10.4 to 20.9 µM) | 0.06 to 0.13 (≈ 0.156 to 0.339 µM) | > 64 | 0.13 to 0.25 (≈ 0.339 to 0.652 µM) |  | MIC90 [5]: 4 to 8 µg/mL; MIC90 (Mycobacterium abscessus): > 64 µg/mL; MIC90 (Mycobacterium avium): > 64 µg/mL
2 | C[C@@H](O)[C@H]1C(=O)N2C(C(=O)[O-])=C(SC3Cn4cnc[n+]4C3)[C@H](C)[C@H]12 (stereo partly shown) [Biapenem] |  |  |  |  |  | 0.25 to 0.5 (≈ 0.713 to 1.43 µM) | 0.007 to 0.015 (≈ 0.02 to 0.0428 µM) |  |  | 2.5-5.0 ^15 µg/ml | 
3 | CC(=O)NC[C@H]1CN(c2ccc3c(c2)Oc2ccccc2O3)C(=O)O1 [T145, N-(((S)-3-(dibenzo[b,e][1,4]dioxin-7-yl)-2-oxooxazolidin-5-yl)methyl)acetamide] | > 64 | 0.25 to 0.5 (≈ 0.735 to 1.47 µM) | > 64 | >64 | > 64 | 0.25 to 0.5 (≈ 0.735 to 1.47 µM) | 0.5 to 1 (≈ 1.47 to 2.94 µM) | 32 to 64 (≈ 94 to 188 µM) | > 64 |  | selection of spontaneous resistant mutants (Staphylococcus aureus [8]): did not form classical distinct single colonies; antimicrobial activity (in words) (Klebsiella pneumoniae): no activity; selection of spontaneous resistant mutants (Enterococcus faecalis [9]): did not form classical distinct single colonies; drug-drug interaction (synergy, indifference or antagonism) [10]: indifferent; bactericidal or bacteriostatic activity ([11]; 1, 2, 4 and 8 times MIC90): bactericidal; MBC ([11]; Mycobacterium tuberculosis, concentration at which 99.9% of bacilli are killed): 2 µg/mL (≈ 5.88 µM); bactericidal or bacteriostatic activity (Enterococcus faecalis [12]): bacteriostatic; drug-drug interaction (synergy, indifference or antagonism) [13]: indifferent; antimicrobial activity (in words) (Pseudomonas aeruginosa): no activity; drug-drug interaction (synergy, indifference or antagonism) (Enterococcus faecalis [14]): indifferent; MIC90 [5]: 0.5 to 1.0 µg/mL; drug-drug interaction (synergy, indifference or antagonism) [15]: indifferent; antimicrobial activity (in words) (Mycobacterium abscessus): no activity; MIC90 (Mycobacterium abscessus): > 64 µg/mL; MIC90 [16]: 0.5 to 1 µg/mL (≈ 1.47 to 2.94 µM); antimicrobial activity (in words) (Mycobacterium avium): no activity; MIC90 (Mycobacterium avium): > 64 µg/mL; bactericidal or bacteriostatic activity (Staphylococcus aureus [17]): bacteriostatic; antimicrobial activity (in words) (Enterobacter cloacae): no activity
4 | C[C@@H](O)[C@H]1C(=O)N2C(C(=O)O)=C(SC3CN(C4=NCCS4)C3)[C@H](C)[C@H]12 [Tebipenem] |  |  |  |  |  | 0.25 to 0.5 (≈ 0.652 to 1.3 µM) | 0.03 to 0.06 (≈ 0.0782 to 0.156 µM) |  |  | 1.25-2.5 ^15 µg/ml | 
5 | C[C@@H](O)[C@H]1C(=O)N2C(C(=O)O)=C(S[C@@H]3CN[C@H](CNS(N)(=O)=O)C3)[C@H](C)[C@H]12 [Doripenem] |  |  |  |  |  | 0.25 to 0.5 (≈ 0.595 to 1.19 µM) | 0.003 to 0.007 (≈ 0.00713 to 0.0166 µM) |  |  | 2.5-5.0 ^15 µg/ml | 
6 | CC(=O)NC[C@H]1CN(c2ccc(N3CCOCC3)c(F)c2)C(=O)O1 [Linezolid] | 16 to 32 (≈ 47.4 to 94.9 µM) | 0.25 to 0.5 (≈ 0.741 to 1.48 µM) | > 64 | >64 | > 64 | 1 to 2 (≈ 2.96 to 5.93 µM) | 1 to 2 (≈ 2.96 to 5.93 µM) | > 64 | > 64 | 0.2-2.0 ^4,11 µg/ml | MIC90 ([7]; listed as linezolid): 0.5 to 2.0 µg/mL; bactericidal or bacteriostatic activity (Staphylococcus aureus [18]): bacteriostatic
7 | C[C@@H](O)[C@H]1C(=O)N2C(C(=O)O)=C([C@H]3CCCO3)S[C@H]12 [Faropenem] |  |  |  |  |  | 0.25 to 0.5 (≈ 0.876 to 1.75 µM) | 0.015 to 0.03 (≈ 0.0526 to 0.105 µM) |  |  | 2.5-5.0 ^15 µg/ml | 
